Experimental data reported in patent publication US9790520B2, “Antimicrobial method for fermentation processes” (DeLaval Holding AB, priority 2010, dated 2017).

What was measured:
[1] = Residual PAA and HP in corn mash by Hach DPD total chlorine test; assay type: physicochemical
Experimental: At the point of injection, the mash temperature was 140° F. and the mash flow rate was 110 gpm. The pumps used to pump both the HP and PAA solution were Prominent diaphragm pumps fitted with Teflon liquid ends. The dose of the PAA solution was 15 ppm (as PAA) and the dose of the HP was 40 ppm (as peroxide). However, the PAA solution and HP were fed for only 15 hours of the 23 hour fermentor fill time making the overall dose 9.8 ppm of PAA solution and 26 ppm of HP.
Samples were taken every hour at the mash cooler exit and fermentation tank. The samples were tested using a Hach DPD total chlorine test. Three (3) ml of sample was added to a test tube, then one DPD powder pillow was added to the sample. […] Peracetic acid (PAA) concentration was estimated based on the hue of pink color after 30 seconds.

yeast = assay: Full scale ethanol plant trial: alcohol production, yeast counts/viability, glycerol; assay type: cell-based, Saccaromyces cerevisiae
Experimental: A number of full scale trials were conducted in order to evaluate the efficacy of introducing peracetic acid and hydrogen peroxide into a fermentation system was evaluated and compared to the use of conventional antibiotics. The ethanol plant tested is a 20 MGPY plant having a modified Delta T design. The plant process flow is as follows: • Corn mash cooler stage one→Corn mash cooler stage 2→fermenter←→fermenter cooler→distillation The corn mash enters the stage one cooler at 180° F. and is cooled to 140° F. It then enters the stage 2 cooler and is cooled to 90° F. Flow through the cooler is 110 gpm. From the stage 2 cooler the mash is sent to the fermenter. Once in the fermenter, the corn mash is re-circulated through a plate and frame mash cooler. When the fermenter has been filled for 30 minutes, yeast is added to the recirculating corn mash. The fermenter takes about 23 hours to fill. Once filled, fermentation begins to accelerate releasing heat which is dissipated in the fermenter cooler. The fermenter mash is sent to distillation about 56 hours after the fermenter is filled. System parameters are as follows:
During fermentation, carbohydrates, ethanol, and organic acids are monitored in order to insure that the fermentation process is occurring normally and to insure that undesirable bacteria are kept under control. […]

## OO [HP, hydrogen peroxide]
[1]; after 3 hours
  HP in fermenter corn mash: not detectable

## CC(=O)OO [PAA, peracetic acid]
[1]; after two hours
  PAA in fermenter corn mash: not detectable
[1]; up to two hours into filling
  PAA in fermenter corn mash: positive

## Virginiamycin [antibiotics]
yeast
  glycerol levels (indicative of stress on the yeast): tended to increase
